In brackets after ≈: the same amount, converted by molar mass. Several values for one entry are separate records, joined by “and”; a condition that tells them apart may be missing. Identical values can stand only once. Like-named read-outs stand apart in the source and are kept apart here. Marks after values point to notes of the source that are not given here.
Tests used:
[1] = Antifungal assay, mycelium growth on PDA containing the chemical; details: for Antifungal index: 50 μg/ml
[2] = as above; details: G. trabeum; for Antifungal index (%): Table 1
[3] = as above; details: T. versicolor; for Antifungal index (%): Table 1
[4] = as above
[5] = MIC and MFC determination on PDA; details: L. sulphureus
[6] = MIC and MFC determination on PDA; details: L. betulina
[7] = Antifungal activity on paper (CNS 2690, TAPPI T487 cm-93); details: A. niger, 14 days
[8] = as above; details: C. globosum, 14 days
[9] = as above; details: A. terreus, 14 days
[10] = L. betulina, 100 μg/ml, Table 1
[11] = L. sulphureus, 100 μg/ml, Table 1
[12] = L. betulina, 100 μg/ml, Table 4, mean ± SE (n = 5)
[13] = L. betulina, Table 5, mean ± SE (n = 5), combinations at 1:1 ratio in molarities
[14] = L. betulina, Table 5, mean ± SE (n = 5), combinations at 1:1 ratio in molarities, read-out: IC50
[15] = L. sulphureus, 100 μg/ml, Table 4, mean ± SE (n = 5)
[16] = L. sulphureus, Table 5, mean ± SE (n = 5), combinations at 1:1 ratio in molarities
[17] = L. sulphureus, Table 5, mean ± SE (n = 5), combinations at 1:1 ratio in molarities, read-out: IC50
[18] = L. sulphureus, single compound at 0.17 mM
[19] = Example 1, FIG. 1(A), read-out: IC50 (concentration that inhibited 50% of the mycelium growth)

In the case of `Cc1cc(C(C)(C)C)c(O)c(C(C)(C)C)c1` [BHT, Butylated hydroxyltoluene, reference compound], the “Antifungal index (%)” value [1, 10] is reported as 16 ± 3.4%, the “Antifungal index (%)” value ([2]; 100 μg/ml) is reported as 0 ± 0% and the “Antifungal index (%)” value ([3]; 100 μg/ml) is reported as 23 ± 2.6%. The “Antifungal index (%)” value [4, 11] was 21 ± 5.6%.

`O=C(O)CN(CCN(CC(=O)O)CC(=O)O)CC(=O)O` [EDTA, diaminoethanetetraacetic acid] showed an Antifungal index ([1]; Lenzites betulina, Example 5) of 90% and an Antifungal index ([4]; Laetiporus sulphureus, 50 μg/ml, Example 5) of 10%.

With `C=CCc1ccc(O)c(OC)c1` [Eugenol, eugenol] the “Antifungal index (%)” value [1, 12] was 100 ± 0.0^a %, the “Antifungal index (%)” value ([1]; L. betulina, 100 μg/ml, Table 4, mean ± SE (n = 5), listed as eugenol) was 100% and the IC90 [1, 13] was 650 ± 50 µM. For the same compound, the IC50 [1, 14] was 370 µM, the “MFC” value [5] was 650 µM (≈ 107 µg/mL) and the “MIC” value [5] was 650 µM (≈ 107 µg/mL). For the same compound, the “Antifungal index (%)” value [4, 15] was 100 ± 0.0^a %, the “Antifungal index (%)” value ([4]; L. sulphureus, 100 μg/ml, Table 4, mean ± SE (n = 5), listed as eugenol) was 100% and the IC90 [4, 16] was 520 ± 10 µM. For the same compound, the IC50 [4, 17] was 250 µM, the Antifungal index [4, 18] was 24% and the “MFC” value [6] was 700 µM (≈ 115 µg/mL). For the same compound, the “MIC” value [6] was 700 µM (≈ 115 µg/mL).

With `CCCC1COC(Cn2cncn2)(c2ccc(Cl)cc2Cl)O1` (stereo not drawn) [Propiconazole, propiconazole] the “Antifungal index (%)” value ([1]; L. betulina, 1 μg/ml (propiconazole), Table 1) was 100 ± 0%, the “Antifungal index (%)” value ([1]; L. betulina, 1 μg/ml (propiconazole), Table 1, listed as propiconazole) was 100% and the “Antifungal index (%)” value ([1]; L. betulina, 1 μg/ml (propiconazole), Table 4, mean ± SE (n = 5)) was 100 ± 0.0^a %. The “Antifungal index (%)” value ([1]; L. betulina, 1 μg/ml (propiconazole), Table 4, mean ± SE (n = 5), listed as propiconazole) was “completely inhibited”, the “Antifungal index (%)” value ([2]; 1 μg/ml (propiconazole)) was 52 ± 3.7% and the “Antifungal index (%)” value ([3]; 1 μg/ml (propiconazole)) was 92 ± 0.6%. The “Antifungal index (%)” value ([4]; L. sulphureus, 1 μg/ml (propiconazole), Table 1) was 100 ± 0%, the “Antifungal index (%)” value ([4]; L. sulphureus, 1 μg/ml (propiconazole), Table 1, listed as propiconazole) was 100% and the “Antifungal index (%)” value ([4]; L. sulphureus, 1 μg/ml (propiconazole), Table 4, mean ± SE (n = 5)) was 100 ± 0.0^a %. The “Antifungal index (%)” value ([4]; L. sulphureus, 1 μg/ml (propiconazole), Table 4, mean ± SE (n = 5), listed as propiconazole) was “completely inhibited”.

Work on `CCCOC(=O)c1cc(O)c(O)c(O)c1` [Propyl gallate, propyl gallate] yielded a Percent inhibition ratio ([7]; 100 μg/cm^2 on filter paper) of 0 ± 0%, a Percent inhibition ratio ([7]; 400 μg/cm^2 on filter paper) of 0 ± 0% and a Percent inhibition ratio ([8]; 100 μg/cm^2 on filter paper) of 0 ± 0%. The Percent inhibition ratio ([8]; 100 μg/cm^2 on filter paper, listed as propyl gallate) was “did not show any antifungal activity”, the Percent inhibition ratio ([8]; 400 μg/cm^2 on filter paper) was 100 ± 0% and the Percent inhibition ratio ([8]; 400 μg/cm^2 on filter paper, listed as propyl gallate) was 100%. For the same compound, the Percent inhibition ratio ([9]; 100 μg/cm^2 on filter paper) was 0 ± 0%, the Percent inhibition ratio ([9]; 400 μg/cm^2 on filter paper) was 0 ± 0% and the “Antifungal index (%)” value [1, 10] was 1 ± 1.9%. For the same compound, the “Antifungal index (%)” value ([2]; 100 μg/ml) was 2 ± 0.6%, the “Antifungal index (%)” value ([3]; 100 μg/ml) was 0 ± 0% and the “Antifungal index (%)” value [4, 11] was 0 ± 0%.

In the case of catechin, the “Antifungal index (%)” value [1, 12] is reported as 3 ± 1.5^b %, the “Antifungal index (%)” value ([1]; L. betulina, 100 μg/ml, Table 4, mean ± SE (n = 5), listed as catechin) is reported as “did not express antifungal activities” and the IC90 [1, 13] is reported as greater than 100000 µM. For the same compound, the IC50 [1, 14] was greater than 100000 µM, the “Antifungal index (%)” value [4, 15] was 5 ± 1.8^b % and the “Antifungal index (%)” value ([4]; L. sulphureus, 100 μg/ml, Table 4, mean ± SE (n = 5), listed as catechin) was “did not express antifungal activities”. It also gave an IC90 [4, 16] of 80000 ± 140 µM and an IC50 [4, 17] of 40000 ± 120 µM.

With `O=c1c(O)c(-c2ccc(O)c(O)c2)oc2cc(O)cc(O)c12` [Quercetin, quercetin] the “Antifungal index (%)” value [1, 12] was 0 ± 0.0^b %, the “Antifungal index (%)” value ([1]; L. betulina, 100 μg/ml, Table 4, mean ± SE (n = 5), listed as quercetin) was “did not express antifungal activities” and the IC90 [1, 13] was greater than 100000 µM. For the same compound, the IC50 [1, 14] was greater than 100000 µM, the “Antifungal index (%)” value [4, 15] was 0 ± 0.0^c % and the “Antifungal index (%)” value ([4]; L. sulphureus, 100 μg/ml, Table 4, mean ± SE (n = 5), listed as quercetin) was “did not express antifungal activities”. For the same compound, the IC90 [4, 16] was greater than 100000 µM and the IC50 [4, 17] was 64000 ± 250 µM.

For `O=CC=Cc1ccccc1` [Cinnamaldehyde, cinnamaldehyde], the Antifungal index ([1]; L. betulina, Example 3, FIG. 2(A)) was 6%, the “Antifungal index (%)” value [1, 10] was 100 ± 0% and the “Antifungal index (%)” value [1, 12] was 100% and 100 ± 0.0^a %. It also gave an IC50 ([1]; L. betulina, Example 1, FIG. 1(A), read-out: IC50 (concentration that inhibited 50% of the mycelium growth)) of 650 µM, an IC90 [1, 13] of 720 ± 60 µM and an IC50 [1, 14] of 650 µM. The Antifungal index ([2]; 50 μg/ml, Example 3, FIG. 2(B)) was 22%, the “Antifungal index (%)” value ([2]; 100 μg/ml) was 31 ± 0.7% and the IC50 [2, 19] was 1050 µM. For the same compound, the “Antifungal index (%)” value ([3]; 100 μg/ml) was 34 ± 2.2%, the IC50 [3, 19] was 1110 µM and the “MFC” value [5] was 700 µM (≈ 92.5 µg/mL). For the same compound, the “MIC” value [5] was 700 µM (≈ 92.5 µg/mL), the “Antifungal index (%)” value [4, 11] was 100 ± 0% and the “Antifungal index (%)” value [4, 15] was 100% and 100 ± 0.0^a %. It also gave an IC50 ([4]; L. sulphureus, Example 1, FIG. 1(A), read-out: IC50 (concentration that inhibited 50% of the mycelium growth)) of 170 µM, an IC90 [4, 16] of 530 ± 20 µM and an IC50 [4, 17] of 230 µM. For the same compound, the Antifungal index [4, 18] was 41%, the “MFC” value [6] was 750 µM (≈ 99.1 µg/mL) and the “MIC” value [6] was 750 µM (≈ 99.1 µg/mL).
